Values quoted from earlier work as cited in article PMC3138524 (European journal of pharmacology, 2011).
Positions of bridges follow the written chain, without caps; N, C: chain ends. Non-standard residues stand in square brackets, D forms with d. d2Nal = N[C@H](Cc1ccc2ccccc2c1)C(=O)O; Pen = CC(C)(S)[C@H](N)C(=O)O; Nle = CCCC[C@H](N)C(=O)O

Assays:
Format in all cases: cell-based, HEK293
[1] = target: T1, MC4R (Homo sapiens, UniProt P32245); conditions: read-out: Functional Assays cAMP EC50; n = 2
T1 sequence (P32245 whole entry): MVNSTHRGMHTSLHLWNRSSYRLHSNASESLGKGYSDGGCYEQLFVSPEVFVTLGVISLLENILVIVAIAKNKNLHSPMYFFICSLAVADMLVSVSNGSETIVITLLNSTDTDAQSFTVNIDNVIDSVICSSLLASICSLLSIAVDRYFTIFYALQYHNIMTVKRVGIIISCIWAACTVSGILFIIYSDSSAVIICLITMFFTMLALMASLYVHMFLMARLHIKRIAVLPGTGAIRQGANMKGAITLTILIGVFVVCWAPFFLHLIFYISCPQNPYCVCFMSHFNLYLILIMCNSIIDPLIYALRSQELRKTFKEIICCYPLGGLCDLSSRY

[2] = target: T2, MC5R (Homo sapiens, UniProt P33032); conditions: read-out: Functional Assays cAMP EC50; n = 2
T2 sequence (P33032 whole entry): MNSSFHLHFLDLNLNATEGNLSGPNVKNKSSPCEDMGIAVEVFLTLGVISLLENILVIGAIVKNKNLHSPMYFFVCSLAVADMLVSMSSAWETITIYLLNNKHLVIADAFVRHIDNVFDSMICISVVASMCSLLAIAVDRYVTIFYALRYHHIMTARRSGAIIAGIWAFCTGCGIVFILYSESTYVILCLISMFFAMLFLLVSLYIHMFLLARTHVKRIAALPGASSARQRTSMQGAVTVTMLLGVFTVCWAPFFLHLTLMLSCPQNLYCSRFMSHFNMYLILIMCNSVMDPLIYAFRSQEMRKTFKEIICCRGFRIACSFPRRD

[3] = target: T3, MC3R (Homo sapiens, UniProt P41968); conditions: read-out: Binding Affinities IC50; n = 2
T3 sequence (P41968 whole entry): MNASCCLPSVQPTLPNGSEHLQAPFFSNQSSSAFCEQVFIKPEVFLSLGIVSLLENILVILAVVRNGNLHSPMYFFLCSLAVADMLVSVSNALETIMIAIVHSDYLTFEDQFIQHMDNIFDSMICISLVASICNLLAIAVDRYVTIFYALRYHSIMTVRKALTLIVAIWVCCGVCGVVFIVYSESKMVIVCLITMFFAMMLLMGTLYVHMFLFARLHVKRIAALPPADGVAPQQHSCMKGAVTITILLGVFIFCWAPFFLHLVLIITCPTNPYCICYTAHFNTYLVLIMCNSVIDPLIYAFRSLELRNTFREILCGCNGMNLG

[4] = target: T1, MC4R; conditions: read-out: Binding Affinities IC50; n = 2
[5] = target: T3, MC3R; conditions: read-out: Functional Assays cAMP EC50; n = 2
[6] = target: T2, MC5R; conditions: read-out: Binding Affinities IC50; n = 2

Molecule | EC50 [1] | EC50 [2] | IC50 [3] | IC50 [4] | further results
Ac-Nle-c[Asp-Aba-D-Phe-Arg-Trp-Lys]-NH2 [compound 4] |  |  | 50 nM |  | 
Ac-c[Cys-His-D-Phe-Cys]-N^α-Gubu-D-Trp-NH2 [compound 7] | > 1000 nM |  |  | 0.7 nM | 
Ac-c[Cys-His-D-Phe-N^α-Gubu-Cys]-Trp-NH2 [compound 6] |  |  |  | 1.8 nM | 

Continued, in another order:

EC50 [1] | EC50 [2] | IC50 [3] | IC50 [4] | Molecule | further results
> 10000 nM | > 1000 nM |  |  | N=C(N)NCCC[C@@H]1NC(=O)[C@@H](Cc2ccccc2)NC(=O)[C@@H]2CCCN2C(=O)[C@@H](NC(=O)[C@H](N)Cc2ccccc2)CC(=O)NCCCC[C@@H](C(N)=O)NC(=O)[C@H](Cc2c[nH]c3ccccc23)NC1=O [compound 3, D-Phe-c[Asp-Pro-D-Phe-Arg-Trp-Lys]-NH2] | 
 |  | 3 nM |  | Ac-[Nle][Pen]EH[d2Nal]RWCPKD-NH2 (disulfide 2-8) [compound 5] | 
 | > 10000 nM | 0.84 nM |  | Tyr-Val-Nle-Gly-His-D-Nal(2′)-Arg-Trp-Asp-Arg-Phe-Gly-NH2 [compound 1] | EC50 [5]: > 10000 nM; IC50 [6]: 1 nM
